In PubChem BioAssay AID256 (DTP/NCI, 2004):
“And” between values parts separate entries of the source, which are not always exact repeats. Equal values may be shown once. Inconclusive results and toxic doses are left out. Rule for the calls: active = survival T/C of 150% or more; inactive = T/C below 125% in these data.

Tested on: CD2F1 mice, L1210 leukemia ip, survival T/C
Assay: NCI In Vivo Anticancer Drug Screen. Data for tumor model L1210 Leukemia (intraperitoneal) in CD2F1 (CDF1) mice
Details: higher = longer survival
How it was run: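 Mice carrying a transplanted tumor received test compound or vehicle alone. The value is the measurement in the treated group divided by that in the vehicle-treated control group.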

[1] = endpoint: mean survival time, dose: 100.0 mg/kg/injection, schedule: Q01DX001 (ip), vehicle: saline
[2] = endpoint: mean survival time, dose: 200.0 mg/kg/injection, schedule: Q01DX001 (ip), vehicle: saline
[3] = endpoint: mean survival time, dose: 400.0 mg/kg/injection, schedule: Q01DX001 (ip), vehicle: saline
[4] = endpoint: mean survival time, dose: 50.0 mg/kg/injection, schedule: Q04DX003 (ip), vehicle: saline
[5] = endpoint: mean survival time, dose: 100.0 mg/kg/injection, schedule: Q04DX003 (ip), vehicle: saline with Tween-80
[6] = endpoint: mean survival time, dose: 200.0 mg/kg/injection, schedule: Q04DX003 (ip), vehicle: saline with Tween-80
[7] = endpoint: mean survival time, dose: 400.0 mg/kg/injection, schedule: Q04DX003 (ip), vehicle: saline with Tween-80
[8] = endpoint: mean survival time, dose: 100.0 mg/kg/injection, schedule: Q04DX003 (ip), vehicle: saline
[9] = endpoint: mean survival time, dose: 200.0 mg/kg/injection, schedule: Q04DX003 (ip), vehicle: saline

Measured: T/C

CCC1(C)C(=O)CCC2C1CCC1(C)C(C(C)CCCC(C)C)CCC21 (stereo unspecified)
inactive: endpoint: mean survival time, dose: 100.0 mg/kg/injection, schedule: Q01DX001 (sc), vehicle: steriod suspending solution 101 % of control | endpoint: mean survival time, dose: 200.0 mg/kg/injection, schedule: Q01DX001 (sc), vehicle: steriod suspending solution 98 % of control | endpoint: mean survival time, dose: 400.0 mg/kg/injection, schedule: Q01DX001 (sc), vehicle: steriod suspending solution 118 % of control

O/N=C/C1CCCC[N-]1.[Co+3].[O-]/N=C/C1CCCC[N-]1.[O-]/N=C/C1CCCC[N-]1.[O-][Cl+3]([O-])([O-])O (stereo unspecified)
inactive: [1] 108 % of control | [2] 96 % of control | [3] 96 % of control

CC(=O)CC(C)=O.CC(=O)CC(C)=O.O=N[O-].O=N[O-].[Co]
inactive: endpoint: median survival time, dose: 12.5 mg/kg/injection, schedule: Q01DX009 (ip), vehicle: saline with Tween-80 106 % of control and 108 % of control and 111 % of control | endpoint: median survival time, dose: 25.0 mg/kg/injection, schedule: Q01DX009 (ip), vehicle: saline with Tween-80 118 % of control and 111 % of control and 112 % of control | endpoint: median survival time, dose: 50.0 mg/kg/injection, schedule: Q01DX009 (ip), vehicle: saline with Tween-80 116 % of control and 118 % of control | endpoint: median survival time, dose: 100.0 mg/kg/injection, schedule: Q01DX009 (ip), vehicle: saline with Tween-80 90 % of control

NCCS[As](=O)(O)SCCN
inactive: endpoint: mean survival time, dose: 12.5 mg/kg/injection, schedule: Q01DX009 (ip), vehicle: saline with Tween-80 97 % of control | endpoint: mean survival time, dose: 12.5 mg/kg/injection, schedule: Q04DX003 (ip), vehicle: saline 101 % of control | endpoint: mean survival time, dose: 25.0 mg/kg/injection, schedule: Q01DX009 (ip), vehicle: saline with Tween-80 103 % of control | endpoint: mean survival time, dose: 25.0 mg/kg/injection, schedule: Q04DX003 (ip), vehicle: saline 98 % of control | endpoint: mean survival time, dose: 50.0 mg/kg/injection, schedule: Q01DX009 (ip), vehicle: saline with Tween-80 94 % of control | [4] 101 % of control

CN(C)S(=O)(=O)CC(O)(c1ccccc1)c1ccccc1
inactive: [5] 103 % of control | [6] 103 % of control | [7] 110 % of control

S=C(S)NC1CCCCCCCCCCC1
inactive: [5] 102 % of control | [6] 100 % of control | [7] 93 % of control

CC(=O)Nc1nc(C)c(CCCOc2ccc([N+](=O)[O-])cc2)c(=O)[nH]1
inactive: endpoint: mean survival time, dose: 50.0 mg/kg/injection, schedule: Q01DX009 (ip), vehicle: Klucel (hydroxypropylcellulose) (HPC) 97 % of control | endpoint: mean survival time, dose: 100.0 mg/kg/injection, schedule: Q01DX009 (ip), vehicle: Klucel (hydroxypropylcellulose) (HPC) 90 % of control | endpoint: mean survival time, dose: 200.0 mg/kg/injection, schedule: Q01DX009 (ip), vehicle: Klucel (hydroxypropylcellulose) (HPC) 90 % of control

ON=C(CCl)CCl
inactive: endpoint: mean survival time, dose: 1.56 mg/kg/injection, schedule: Q01DX009 (ip), vehicle: saline 96 % of control | endpoint: mean survival time, dose: 3.12 mg/kg/injection, schedule: Q01DX009 (ip), vehicle: saline 96 % of control | endpoint: mean survival time, dose: 6.25 mg/kg/injection, schedule: Q01DX009 (ip), vehicle: saline 93 % of control

CCCCN(CCCC)c1cc(C(C)=O)c2ccccc2n1
inactive: [4] 102 % of control | [8] 102 % of control | [9] 102 % of control

O=C1CC(c2ccc([N+](=O)[O-])cc2)=Nc2ccccc2N1
inactive: endpoint: mean survival time, dose: 100.0 mg/kg/injection, schedule: Q01DX009 (ip), vehicle: saline with Tween-80 102 % of control | endpoint: mean survival time, dose: 200.0 mg/kg/injection, schedule: Q01DX009 (ip), vehicle: saline with Tween-80 101 % of control | endpoint: mean survival time, dose: 400.0 mg/kg/injection, schedule: Q01DX009 (ip), vehicle: saline with Tween-80 96 % of control

CC(=O)N(CC(C)C)N=O
inactive: [1] 95 % of control | [8] 102 % of control | [2] 97 % of control | [9] 97 % of control | [3] 89 % of control | endpoint: mean survival time, dose: 400.0 mg/kg/injection, schedule: Q04DX003 (ip), vehicle: saline 94 % of control

CC(C)C1CCC2=C(CCC3C(C)(C(=O)O)CCCC23C)C1 (stereo unspecified)
inactive: [5] 95 % of control | [6] 88 % of control | [7] 89 % of control

COCCCNc1ccc([N+](=O)[O-])cn1
inactive: endpoint: mean survival time, dose: 50.0 mg/kg/injection, schedule: Q01DX001 (ip), vehicle: carboxymethylcellulose (CMC) 100 % of control | endpoint: mean survival time, dose: 100.0 mg/kg/injection, schedule: Q01DX001 (ip), vehicle: carboxymethylcellulose (CMC) 100 % of control | endpoint: mean survival time, dose: 200.0 mg/kg/injection, schedule: Q01DX001 (ip), vehicle: carboxymethylcellulose (CMC) 108 % of control
